In brackets after ≈: the same amount, converted by molar mass. Read-outs that look alike come from different tables or passages of the source. Values belong to the compound of their own block, whether it stands above or below them.
Experiments:
[1] = Pharmacokinetics after single dose oral administration in rats; format: in vivo, male Sprague Dawley rats; conditions: rat; for half-life: po, 50 mg/kg
Method: The pharmacokinetics of ivacaftor (50 mg/kg in organic and 0.25% Methyl Cellulose in water suspension) in male Sprague Dawley rats after single dose oral administration and compound 15 in 0.25% Methyl Cellulose in water suspension at 108 mg-eq/kg (50 mg/kg equivalent to free base) 324 mg-eq/kg (150 mg/kg equivalent to free base) 540 mg-eq/kg (250 mg/kg equivalent to free base) and 756 mg-eq/kg (350 mg/kg equivalent to free base) were investigated. […] The plasma concentration vs. time profile for these experiments are show in FIG. 3.

[2] = Solubility in various buffers; format: physicochemical; conditions: for pH: pH of solubility sample
Method: The solubility of crystalline compound 15 was measured in the various buffers.

[3] = male, Sprague Dawley, plasma, ivacaftor 50 mg/kg, Crystalline Suspension (0.25% Methyl Cellulose in water)

SMILES: CC(C)OC(=O)[C@H](C)N[P@@](=O)(OCCN1CCOCC1)Oc1cc(NC(=O)c2c[nH]c3ccccc3c2=O)c(C(C)(C)C)cc1C(C)(C)C.O=C(O)CCC(=O)O [Compound 15]
dose dependence of exposure of ivacaftor, in words ([1]; crystalline aqueous suspension, dosed up to 350 mg/kg): dose proportional increase in the exposure of ivacaftor
reduction in AUC with crystalline aqueous suspension, in words ([1]; dosed up to 350 mg/kg): such reduction was not observed
Observation after 24 hrs ([2]; FaSSIF.V2): Suspension
solubility compared with ivacaftor, in words ([2]; FeSSIF and simulated gastric fluid): significant improvement in solubility
Observation after 24 hrs ([2]; FeSSIF.V2): Clear
Observation after 24 hrs ([2]; SGF): Clear
Observation after 24 hrs ([2]; Water): Slightly Hazy
solubility ([2]; aqueous buffer, thermodynamic from solid, pH 6.8 PO4^3− buffer, read-out: Solubility): < 2 µg/mL
Observation after 24 hrs ([2]; pH 6.8 PO4^3− buffer): Suspension
pH ([2]; FaSSIF.V2): 6.09
pH ([2]; FeSSIF.V2): 5.83
pH ([2]; SGF): 1.96
pH ([2]; Water): 3.57
pH ([2]; pH 6.8 PO4^3− buffer): 6.71
solubility ([2]; simulated gastric fluid, thermodynamic from solid, SGF, read-out: Solubility): 1430 µg/mL
solubility ([2]; thermodynamic from solid, FaSSIF.V2, read-out: Solubility): 86 µg/mL
solubility ([2]; thermodynamic from solid, FeSSIF.V2, read-out: Solubility): 1810 µg/mL
solubility ([2]; water, thermodynamic from solid, read-out: Solubility): 787 µg/mL

AUC(0-t) [1, 3]: 14600 ng·h/mL
Cmax [1, 3]: 586 ng/mL
half-life ([1]; male, Sprague Dawley, plasma, Organic Solution): 10 h
half-life [1, 3]: 20 h
reduction in AUC, crystalline suspension vs organic solution formulation ([1]; ivacaftor 50 mg/kg): 92%
solubility ([2]; FaSSIF.V2, fassif, thermodynamic from solid, read-out: Solubility): 15 µg/mL (≈ 38.2 µM)
solubility ([2]; FeSSIF.V2, fessif, thermodynamic from solid, read-out: Solubility): 152 µg/mL (≈ 387 µM)
solubility ([2]; FeSSIF.V2, ivacaftor as SDD, read-out: Solubility): 600 µg/mL (≈ 1530 µM)
solubility ([2]; SGF, simulated gastric fluid, thermodynamic from solid, read-out: Solubility): 21 µg/mL (≈ 53.5 µM)
solubility ([2]; Water): 7 µg/mL (≈ 17.8 µM)
pH ([2]; FaSSIF.V2): 6.35
pH ([2]; FeSSIF.V2): 5.91
pH ([2]; SGF): 2.20
pH ([2]; Water): 7.35
pH ([2]; pH 6.8 PO4^3− buffer): 6.71
solubility ([2]; phosphate buffer, aqueous buffer, thermodynamic from solid, pH 6.8 PO4^3− buffer, read-out: Solubility): 8 µg/mL (≈ 20.4 µM)
SMILES: CC(C)(C)c1cc(C(C)(C)C)c(NC(=O)c2c[nH]c3ccccc3c2=O)cc1O [ivacaftor, N-(2,4-di-tert-butyl-5-hydroxyphenyl)-4-oxo-1,4-dihydroquinoline-3-carboxamide, reference compound]
